How the values were obtained:
[1] = target: T1, CFTR (E1371Q) (Homo sapiens, UniProt P13569, C128S/C1344S/C1355S/C1395S/C1400S/C1410S/C1458S/C225S/C276S/C343S/C491S/C592M/C647S/C76L/C832S/C866S/E1371Q/S1435C/T388C); experiment: smFRET imaging of NBD dimerization, CFTR (E1371Q); format: biochemical; settings: with CFTRinh-172
T1 construct: GFP (PreScission Protease-cleavable) (C); made in house; host or cells: HEK293S GnTI- suspension cells infected with BacMam baculovirus

[2] = target: T2, S1141A CFTR (Homo sapiens, UniProt P13569, S1141A); experiment: Inside-out excised patch titration, S1141A CFTR; format: biochemical; settings: inside-out patches, 3 mM ATP
T2 construct: expressed in transfected cells; host or cells: CHO-K1 (ATCC CCL-61)
T2 sequence (P13569 whole entry S1141A): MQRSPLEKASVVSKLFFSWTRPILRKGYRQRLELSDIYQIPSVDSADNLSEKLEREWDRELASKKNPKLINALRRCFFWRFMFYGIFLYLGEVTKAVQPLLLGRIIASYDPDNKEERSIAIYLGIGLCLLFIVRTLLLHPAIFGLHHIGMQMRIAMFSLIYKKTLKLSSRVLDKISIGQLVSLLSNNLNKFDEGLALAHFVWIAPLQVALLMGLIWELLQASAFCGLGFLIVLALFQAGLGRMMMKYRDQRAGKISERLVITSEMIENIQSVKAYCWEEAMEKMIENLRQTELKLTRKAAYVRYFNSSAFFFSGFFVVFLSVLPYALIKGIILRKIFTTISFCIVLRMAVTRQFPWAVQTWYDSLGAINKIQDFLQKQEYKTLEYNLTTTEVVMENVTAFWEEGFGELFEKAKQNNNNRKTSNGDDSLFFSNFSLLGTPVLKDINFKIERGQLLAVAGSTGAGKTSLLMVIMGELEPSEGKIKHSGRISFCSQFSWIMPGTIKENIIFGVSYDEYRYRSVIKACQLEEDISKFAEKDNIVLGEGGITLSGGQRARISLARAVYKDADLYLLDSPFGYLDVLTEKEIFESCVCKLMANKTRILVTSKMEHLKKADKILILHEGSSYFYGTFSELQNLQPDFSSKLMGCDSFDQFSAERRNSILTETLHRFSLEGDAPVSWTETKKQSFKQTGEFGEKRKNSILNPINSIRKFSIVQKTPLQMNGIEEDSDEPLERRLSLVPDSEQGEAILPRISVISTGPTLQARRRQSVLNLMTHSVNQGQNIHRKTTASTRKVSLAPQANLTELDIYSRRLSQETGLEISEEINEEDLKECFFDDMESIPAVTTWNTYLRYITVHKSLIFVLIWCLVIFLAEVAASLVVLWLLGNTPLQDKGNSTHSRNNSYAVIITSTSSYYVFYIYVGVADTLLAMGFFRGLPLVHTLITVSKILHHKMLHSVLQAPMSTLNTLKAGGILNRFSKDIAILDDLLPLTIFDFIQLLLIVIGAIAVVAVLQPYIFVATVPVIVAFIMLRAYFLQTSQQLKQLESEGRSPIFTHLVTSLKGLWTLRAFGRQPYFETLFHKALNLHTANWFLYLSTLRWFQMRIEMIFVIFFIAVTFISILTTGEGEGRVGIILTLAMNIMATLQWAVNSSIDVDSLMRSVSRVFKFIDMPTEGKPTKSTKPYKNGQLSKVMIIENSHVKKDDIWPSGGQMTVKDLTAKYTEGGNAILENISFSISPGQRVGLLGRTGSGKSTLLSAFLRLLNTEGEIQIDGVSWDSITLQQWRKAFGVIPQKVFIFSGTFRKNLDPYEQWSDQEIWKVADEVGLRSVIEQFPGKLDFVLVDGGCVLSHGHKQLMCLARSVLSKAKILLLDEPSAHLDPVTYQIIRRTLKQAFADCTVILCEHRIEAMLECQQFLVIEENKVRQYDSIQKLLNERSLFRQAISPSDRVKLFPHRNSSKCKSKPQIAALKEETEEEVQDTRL

[3] = target: T3, PKA-phosphorylated WT CFTR (Homo sapiens, UniProt P13569); experiment: Steady-state ATP hydrolysis, NADH-coupled assay; format: biochemical; settings: 10 µM CFTRinh-172
T3 construct: GFP (PreScission Protease-cleavable) (C, cleaved yes); made in house; host or cells: HEK293S GnTI- suspension cells infected with BacMam baculovirus
T3 sequence (P13569 whole entry): as the sequence (P13569 whole entry S1141A) above, with A1141S counted along it

[4] = tested on: CFTR R347D; design: method as in PMID 18366345; settings: cited from earlier work
[5] = tested on: cholera toxin-induced intestinal fluid secretion; settings: in vivo; cited from earlier work
[6] = target: T4, WT CFTR (Homo sapiens, UniProt P13569); experiment: Inside-out excised patch macroscopic current recording, WT CFTR; format: biochemical; settings: inside-out patches, 3 mM ATP
T4 construct: GFP (PreScission Protease-cleavable) (C, cleaved yes); made in house; host or cells: HEK293S GnTI- suspension cells infected with BacMam baculovirus
T4 sequence (P13569 whole entry): as the sequence (P13569 whole entry S1141A) above, with A1141S counted along it

[7] = tested on: cyst growth; design: method as in PMID 18385427; settings: animal models of polycystic kidney disease; cited from earlier work
[8] = tested on: CFTR R347A; design: method as in PMID 18366345; settings: R347A vs WT CFTR; cited from earlier work
[9] = target: T5, CFTR (E1371Q) (Homo sapiens, UniProt P13569, E1371Q); experiment: Single-channel recording in synthetic planar lipid bilayer, CFTR (E1371Q); format: biochemical; settings: 10 µM CFTRinh-172, 3 mM ATP, -150 mV, mean and SE, 0.79 ± 0.03 without inhibitor
T5 construct: expressed in transfected cells; host or cells: CHO-K1 (ATCC CCL-61)
T5 sequence (P13569 whole entry E1371Q): as the sequence (P13569 whole entry S1141A) above, with A1141S, E1371Q counted along it

[10] = target: T6, WT CFTR (Homo sapiens, UniProt P13569, C128S/C1344S/C1355S/C1395S/C1400S/C1410S/C1458S/C225S/C276S/C343S/C491S/C592M/C647S/C76L/C832S/C866S/S1435C/T388C); experiment: smFRET imaging of NBD dimerization, WT CFTR; format: biochemical; settings: 10 µM CFTRinh-172, 3 mM ATP
T6 construct: GFP (PreScission Protease-cleavable) (C); made in house; host or cells: HEK293S GnTI- suspension cells infected with BacMam baculovirus
T6 sequence (P13569 1-1480 with the stated changes): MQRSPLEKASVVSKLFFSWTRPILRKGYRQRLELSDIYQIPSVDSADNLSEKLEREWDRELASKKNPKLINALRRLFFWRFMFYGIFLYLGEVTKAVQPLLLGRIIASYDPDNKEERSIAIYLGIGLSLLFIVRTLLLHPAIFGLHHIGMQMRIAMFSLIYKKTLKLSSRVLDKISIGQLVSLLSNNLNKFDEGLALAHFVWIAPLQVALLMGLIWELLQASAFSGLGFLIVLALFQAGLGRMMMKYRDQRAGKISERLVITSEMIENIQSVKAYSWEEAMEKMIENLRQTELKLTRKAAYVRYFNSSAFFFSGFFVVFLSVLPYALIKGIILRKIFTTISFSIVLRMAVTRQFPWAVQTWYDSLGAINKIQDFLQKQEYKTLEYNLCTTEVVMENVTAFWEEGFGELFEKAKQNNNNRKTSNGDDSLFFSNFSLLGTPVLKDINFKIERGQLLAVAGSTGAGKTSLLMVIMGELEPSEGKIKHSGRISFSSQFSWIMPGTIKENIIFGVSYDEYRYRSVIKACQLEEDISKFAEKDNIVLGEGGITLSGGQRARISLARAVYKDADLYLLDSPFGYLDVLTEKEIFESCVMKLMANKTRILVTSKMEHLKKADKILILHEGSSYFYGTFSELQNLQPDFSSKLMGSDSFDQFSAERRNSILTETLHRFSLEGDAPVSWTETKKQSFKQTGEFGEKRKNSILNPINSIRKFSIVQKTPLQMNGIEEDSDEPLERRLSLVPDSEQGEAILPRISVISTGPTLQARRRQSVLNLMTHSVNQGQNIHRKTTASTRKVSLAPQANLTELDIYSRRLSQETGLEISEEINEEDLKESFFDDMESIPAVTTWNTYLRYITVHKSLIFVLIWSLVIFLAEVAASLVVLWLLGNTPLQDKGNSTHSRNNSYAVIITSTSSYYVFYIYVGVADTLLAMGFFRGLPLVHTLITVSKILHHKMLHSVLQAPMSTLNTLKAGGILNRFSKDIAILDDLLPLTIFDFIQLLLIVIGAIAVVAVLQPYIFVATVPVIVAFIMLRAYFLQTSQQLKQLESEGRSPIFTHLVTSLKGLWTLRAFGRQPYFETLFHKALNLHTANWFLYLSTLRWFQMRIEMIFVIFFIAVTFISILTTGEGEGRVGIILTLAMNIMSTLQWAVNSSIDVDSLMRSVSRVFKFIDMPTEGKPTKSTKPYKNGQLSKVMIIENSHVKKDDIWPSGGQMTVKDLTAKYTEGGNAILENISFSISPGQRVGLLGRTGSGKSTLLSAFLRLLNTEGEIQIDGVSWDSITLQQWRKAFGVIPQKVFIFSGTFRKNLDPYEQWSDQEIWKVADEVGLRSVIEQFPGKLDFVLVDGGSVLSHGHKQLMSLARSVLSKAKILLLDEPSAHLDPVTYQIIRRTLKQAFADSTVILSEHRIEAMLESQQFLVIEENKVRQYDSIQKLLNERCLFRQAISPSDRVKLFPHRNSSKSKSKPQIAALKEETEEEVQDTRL

[11] = target: T5, CFTR (E1371Q); experiment: Inside-out excised patch macroscopic current recording, CFTR (E1371Q); format: biochemical; settings: 10 µM CFTRinh-172; inside-out patches; PKA-phosphorylated, 3 mM ATP
[12] = target: T4, WT CFTR; experiment: Single-channel recording in synthetic planar lipid bilayer, WT CFTR; format: biochemical
[13] = target: T7, K95A CFTR (Homo sapiens, UniProt P13569, K95A); experiment: Inside-out excised patch titration, K95A CFTR; format: biochemical; settings: inside-out patches, 3 mM ATP, Hill coefficient fixed to 1
T7 construct: expressed in transfected cells; host or cells: CHO-K1 (ATCC CCL-61)
T7 sequence (P13569 whole entry K95A): as the sequence (P13569 whole entry S1141A) above, with K95A, A1141S counted along it

[14] = target: T8, T1142I CFTR (Homo sapiens, UniProt P13569, T1142I); experiment: Inside-out excised patch titration, T1142I CFTR; format: biochemical; settings: inside-out patches, 3 mM ATP, Hill coefficient fixed to 1
T8 construct: expressed in transfected cells; host or cells: CHO-K1 (ATCC CCL-61)
T8 sequence (P13569 whole entry T1142I): as the sequence (P13569 whole entry S1141A) above, with A1141S, T1142I counted along it

[15] = tested on: CFTR; design: method as in PMID 36949202; settings: cited from earlier work; for effect on channel activity: by increasing pore opening while the NBDs are dimerized

T1 sequence (P13569 1-1480 with the stated changes): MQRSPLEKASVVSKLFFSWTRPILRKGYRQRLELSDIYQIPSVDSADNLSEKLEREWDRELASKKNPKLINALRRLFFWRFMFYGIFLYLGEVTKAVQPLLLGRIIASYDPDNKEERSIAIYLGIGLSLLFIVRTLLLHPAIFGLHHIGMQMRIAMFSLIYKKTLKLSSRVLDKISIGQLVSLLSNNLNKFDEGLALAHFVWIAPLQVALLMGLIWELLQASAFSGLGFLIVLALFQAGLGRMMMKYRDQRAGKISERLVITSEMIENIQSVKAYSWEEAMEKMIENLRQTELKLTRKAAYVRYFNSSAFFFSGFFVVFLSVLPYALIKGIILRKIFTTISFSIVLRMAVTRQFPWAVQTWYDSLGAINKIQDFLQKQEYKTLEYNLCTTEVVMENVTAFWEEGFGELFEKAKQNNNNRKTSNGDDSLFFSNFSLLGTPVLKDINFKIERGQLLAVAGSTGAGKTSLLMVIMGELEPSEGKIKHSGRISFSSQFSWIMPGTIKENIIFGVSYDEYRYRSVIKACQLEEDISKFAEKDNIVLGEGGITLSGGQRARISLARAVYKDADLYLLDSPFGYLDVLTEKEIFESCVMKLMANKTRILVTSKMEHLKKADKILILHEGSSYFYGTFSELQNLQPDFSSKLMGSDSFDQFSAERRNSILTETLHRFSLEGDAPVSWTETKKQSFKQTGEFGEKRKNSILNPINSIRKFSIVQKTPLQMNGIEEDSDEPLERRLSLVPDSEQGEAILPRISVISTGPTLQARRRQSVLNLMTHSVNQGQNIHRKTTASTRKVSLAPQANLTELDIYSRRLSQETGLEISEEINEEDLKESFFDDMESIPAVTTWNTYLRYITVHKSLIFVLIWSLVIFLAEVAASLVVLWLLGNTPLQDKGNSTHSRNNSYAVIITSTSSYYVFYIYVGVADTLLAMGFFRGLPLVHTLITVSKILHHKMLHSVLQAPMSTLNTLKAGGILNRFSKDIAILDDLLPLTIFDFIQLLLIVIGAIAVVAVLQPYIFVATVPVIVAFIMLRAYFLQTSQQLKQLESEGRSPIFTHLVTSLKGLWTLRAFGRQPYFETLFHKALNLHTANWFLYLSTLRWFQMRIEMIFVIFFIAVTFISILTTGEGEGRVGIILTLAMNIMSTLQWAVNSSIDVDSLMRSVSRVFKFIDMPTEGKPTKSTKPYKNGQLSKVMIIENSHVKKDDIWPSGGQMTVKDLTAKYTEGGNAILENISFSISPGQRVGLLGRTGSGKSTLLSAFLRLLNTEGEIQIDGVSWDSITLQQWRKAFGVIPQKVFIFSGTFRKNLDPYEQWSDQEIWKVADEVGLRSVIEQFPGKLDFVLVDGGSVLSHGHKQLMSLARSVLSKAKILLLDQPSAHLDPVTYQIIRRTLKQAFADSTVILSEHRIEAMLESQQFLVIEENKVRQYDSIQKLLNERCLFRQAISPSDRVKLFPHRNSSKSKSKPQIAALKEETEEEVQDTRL

Row | Structure (SMILES) | effect on conformational dynamics [1] | effect of S1141A substitution on inhibitory potency [2] | change of Michaelis-Menten constant (Km) for ATP [3] | saturating ATP turnover (kcat) ([3]; 22.0 ± 2.2 without inhibitor) [ATP/protein/min] | effect of R347D substitution on inhibition [4] | cholera toxin-induced intestinal fluid secretion [5] | reduction of macroscopic current ([6]; 10 µM CFTRinh-172, PKA-phosphorylated) [%] | IC50 ([6]; WT CFTR, Hill coefficient fixed to 1) [µM] | cyst growth [7] | decrease in potency on substitution of R347 with alanine [8] | open probability [9] | effect on dwell time of the NBD-dimerized state [10] | effect on probability of NBD dimerization [10] | inhibition of macroscopic current relative to WT CFTR [11] | open probability ([12]; 10 µM CFTRinh-172, 3 mM ATP, -150 mV, mean and SE, 0.21 ± 0.05 without inhibitor) | mean open dwell time ([12]; with CFTRinh-172, 3 mM ATP, 487 ± 92 ms without inhibitor) [ms] | IC50 [13] [µM] | IC50 [14] [µM] | effect on channel activity [15] | effect on ATP turnover [15]
1 | O=C(O)c1ccc(/C=C2\SC(=S)N(c3cccc(C(F)(F)F)c3)C2=O)cc1 [CFTRinh-172] | did not affect | no effect on inhibitory potency | not significantly changed | 5.2 ± 1.0 | nearly eliminated its inhibitory effect | block cholera toxin-induced intestinal fluid secretion | 96 | 0.6 ± 0.1 | suppress cyst growth | over 30 fold | 0.0011 ± 0.0004 | did not significantly affect | did not significantly affect | comparable level of inhibition | 0.007 ± 0.003 | 109 ± 14 | 3.5 ± 0.9 | 5.3 ± 3.1 |  | 
2 | CC1(C)Cc2c(sc(NC(=O)c3ccn[nH]3)c2C(N)=O)C(C)(C)O1 [GLPG1837, N-(3-Carbamoyl-5,5,7,7-tetramethyl-5,7-dihydro-4H-thieno[2,3-c]pyran-2-yl)-lH-pyrazole-5-carboxamide] |  |  |  |  |  |  |  |  |  |  |  |  |  |  |  |  |  |  | enhance channel activity | increase ATP turnover
3 | CC(C)(C)c1cc(C(C)(C)C)c(NC(=O)c2c[nH]c3ccccc3c2=O)cc1O [Ivacaftor, N-(2,4-Di-tert-butyl-5-hydroxyphenyl)-4-oxo-1,4-dihydroquinoline-3-carboxamide] |  |  |  |  |  |  |  |  |  |  |  |  |  |  |  |  |  |  | enhance channel activity | increase ATP turnover
